Data as given in US6495568B1, “Hydroxamic acid derivatives as matrix metalloprotease (MMP) inhibitors” (Warner-Lambert Company, priority 1997, dated 2002).

CCOc1cccc(-c2ccc(C3CCN(S(=O)(=O)C(C)(C)C(=O)NO)CC3)cc2OC)c1 [Example 27, N-Hydroxy-2-{4-[4(3-ethoxyphenyl)-3-methoxyphenyl]piperidin-1-ylsulphonyl}-2-methylpropanamide] gave a melting point of 134 to 136 °C. Cc1cc(C2=CCN(S(=O)(=O)CC(=O)NO)CC2)ccc1-c1ccccc1F [Example 57, N-Hydroxy-2-{4-[4-(2-fluorophenyl)-3-methylphenyl]-1,2,3,6-tetrahydropyridin-1-ylsulphonyl}acetamide] showed a melting point of 160 to 163 °C. Work on COCCOc1cccc(-c2ccc(C3CCN(S(=O)(=O)C(C)(C)C(=O)NO)CC3)cc2C)c1 [Example 47, N-Hydroxy-2-{4-[4-(3-[2-methoxyethoxy]phenyl)-3-methylphenyl]piperidin-1-ylsulphonyl}-2-methylpropanamide] yielded a melting point of 155 to 156 °C. With Cc1cc(C2CCN(S(=O)(=O)C(C)(C)C(=O)NO)CC2)ccc1-c1ccc2c(c1)nc(C)n2C [Example 63, N-Hydroxy-2-{4-[4-(1,2-dimethylbenzimidazol-5-yl)-3-methylphenyl]piperidin-1-ylsulphonyl]-2-methylpropionamide] the melting point was 213 to 215 °C. Work on Cc1cc(C2=CCN(S(=O)(=O)CC(=O)NO)CC2)ccc1-c1cccnc1 [Example 34, N-Hydroxy-2-{4-[3-methyl-4-(pyridin-3-yl)phenyl]-1,2,3,6-tetrahydropyridin-1-ylsulphonyl}acetamide] yielded a melting point of 132 to 136 °C. CCCCC(C(=O)NO)S(=O)(=O)N1CC=C(c2ccc(-c3ccccc3)cc2)CC1 (racemic) [Example 13, N-Hydroxy-2(R,S)-[4-(4-phenylphenyl)-1,2,3,6-tetrahydropyridin-1-ylsulphonyl]hexanamide] showed a melting point of 186 to 189 °C. COc1cc(C2=CCN(S(=O)(=O)CC(=O)NO)CC2)ccc1-c1ccccc1 [Example 18, N-Hydroxy-2-[4-(3-methoxy-4-phenylphenyl)-1,2,3,6-tetrahydropyridin-1-ylsulphonyl]acetamide] gave a melting point of 175 to 177 °C. For O=C(CS(=O)(=O)N1CCC(c2ccccc2)CC1)NO [Example 5, N-Hydroxy-2-(4-phenylpiperidin-1-ylsulphonyl)acetamide], the melting point was 185 to 187 °C. In the case of Cc1cc(C2=CCN(S(=O)(=O)CC(=O)NO)CC2)ccc1-c1ccc(F)c(Cl)c1 [Example 55, N-Hydroxy-2-{4-[4-(3chloro-4-fluorophenyl)-3-methylphenyl]-1,2,3,6-tetrahydropyridin-1-ylsulphonyl}acetamide], the melting point was 181 to 183 °C. For COc1cc(C2=CCN(S(=O)(=O)C(C)(C)C(=O)NO)CC2)ccc1-c1ccccc1 [Example 19, N-Hydroxy-2-[4-(3-methoxy-4-phenylphenyl)-1,2,3,6-tetrahydropyridin-1-ylsulphonyl]-2-methylpropanamide], the melting point was 156 to 158 °C. Molecule O=C(CS(=O)(=O)N1CC=C(c2ccc(-c3ccccc3)c(F)c2)CC1)NO [Example 20, N-Hydroxy-2-[4-(3-fluoro-4-phenylphenyl)-1,2,3,6-tetrahydropyridin-1-ylsulphonyl]acetamide] has a melting point of 184 to 188 °C. With CCOc1cccc(-c2ccc(C3CCN(S(=O)(=O)CC(=O)NO)CC3)cc2C)c1 [Example 31, N-Hydroxy-2-{4-[4-(3-ethoxyphenyl)-3-methylphenyl]piperidin-1-ylsulphonyl}acetamide] the melting point was 179 to 180 °C. CCOc1cccc(-c2ccc(C3=CCN(S(=O)(=O)CC(=O)NO)CC3)cc2)c1 [Example 21, N-Hydroxy-2-{4-[4-(3-ethoxyphenyl)phenyl]-1,2,3,6-tetrahydropyridin-1-ylsulphonyl}acetamide] showed a melting point of 168 to 170 °C. Molecule COc1cccc(-c2ccc(C3=CCN(S(=O)(=O)CC(=O)NO)CC3)cc2C)c1 [Example 22, N-Hydroxy-2-{4-[4-(3-methoxyphenyl)-3-methylphenyl]-1,2,3,6-tetrahydropyridin-1-ylsulphonyl}acetamide] has a melting point of 162 to 165 °C. Molecule Cc1cc(C2CCN(S(=O)(=O)C(C)(C)C(=O)NO)CC2)ccc1-c1ccc2c(c1)OC(C)(C)O2 [Example 62, N-Hydroxy-2-{4-[4-(2,2-dimethyl-1,3-benzodioxol-5-yl)-3-methylphenyl]-piperidin-1-ylsulphonyl}-2-methylpropionamide] has a melting point of 184 to 186 °C. Molecule Cc1cc(C2=CCN(S(=O)(=O)CC(=O)NO)CC2)ccc1-c1cccc(C(F)(F)F)c1 [Example 45, N-Hydroxy-2-{4[3-methyl-4-(3-trifluoromethylphenyl)phenyl]-1,2,3,6-tetrahydropyridin-1-ylsulphonyl}acetamide] has a melting point of 168 to 170 °C. With O=C(CS(=O)(=O)N1CCC(Cc2ccccc2)CC1)NO [Example 6, N-Hydroxy-2-(4-benzylpiperidin-1-ylsulphonyl)acetamide] the melting point was 132 to 135 °C. In the case of Cc1cc(C2=CCN(S(=O)(=O)CC(=O)NO)CC2)ccc1-c1ccc2c(c1)CCC2 [Example 59, N-Hydroxy-2-{4-[4-(indan-5-yl)-3-methylphenyl]-1,2,3,6-tetrahydropyridin-1-ylsulphonyl}acetamide], the melting point was 149 to 152 °C. COc1cccc(-c2ccc(C3CCN(S(=O)(=O)C(C)(C)C(=O)NO)CC3)cc2OC)c1 [Example 26, N-Hydroxy-2-{4-[3-methoxy-4-(3-methoxyphenyl)phenyl]piperidin-1-ylsulphonyl}-2-methylpropanamide] gave a melting point of 161 to 163 °C. Molecule COCCC(C(=O)NO)S(=O)(=O)N1CC=C(c2ccc(-c3ccccc3)c(C)c2)CC1 (racemic) [Example 48, N-Hydroxy-4-methoxy-2(R,S)-[4-(3-methyl-4-phenylphenyl)-1,2,3,6-tetrahydropyridin-1-ylsulphonyl]butanamide] has a melting point of 135 to 136 °C. Work on COc1ccc(-c2ccc(C3=CCN(S(=O)(=O)CC(=O)NO)CC3)cc2C)cc1OC [Example 58, N-Hydroxy-2-{4-[4-(3,4-dimethoxyphenyl)-3-methylphenyl]-1,2,3,6-tetrahydropyridin-1-ylsulphonyl}acetamide] yielded a melting point of 172 to 174 °C. O=C(CS(=O)(=O)N1CC=C(c2ccc(-c3ccccc3)cc2)CC1)NO [Example 1, N-Hydroxy-2-[4-(4-phenylphenyl)-1,2,3,6-tetrahydropyridin-1-ylsulphonyl]acetamide] showed a melting point of 216 to 218 °C. Molecule O=C(NO)C(Cc1ccccc1)S(=O)(=O)N1CC=C(c2ccc(-c3ccccc3)cc2)CC1 (racemic) [Example 53, N-Hydroxy-3-phenyl-2(R,S)-[4-(4-phenylphenyl)-1,2,3,6-tetrahydropyridin-1-ylsulphonyl]propanamide] has a melting point of 202 to 205 °C. In the case of Cc1cc(C2=CCN(S(=O)(=O)CC(=O)NO)CC2)ccc1-c1cccc(CO)c1 [Example 39, N-Hydroxy-2-{4-[4-(3-hydroxymethylphenyl)-3-methylphenyl]-1,2,3,6-tetrahydropyridin-1-ylsulphonyl}acetamide], the melting point was 174 to 176 °C. Molecule C=C(C)CC(C(=O)NO)S(=O)(=O)N1CC=C(c2ccc(-c3ccccc3)cc2)CC1 (racemic) [Example 14, N-Hydroxy-4-methyl-2(R,S)-[4-(4-phenylphenyl)-1,2,3,6-tetrahydropyridin-1-ylsulphonyl]pent-4-enamide] has a melting point of 170 to 171 °C. With O=C(CS(=O)(=O)N1CC=C(c2ccccc2)CC1)NO [Example 4, N-Hydroxy-2-(4-phenyl-1,2,3,6-tetrahydropyridin-1-ylsulphonyl)acetamide] the melting point was 175 to 176 °C.
